# From patent US11879140B2, “P21 mRNA targeting DNAzymes” (1E Therapeutics Ltd., priority 2020, dated 2024)
# Tests used:
# human p21 mRNA = experiment: In vitro cleavage assay of human p21 mRNA; format: biochemical; conditions: in vitro cleavage of p21 mRNA (SEQ ID NO: 1); RNA substrate 500 nM, 37° C. 60 min, agarose gel
# Text: Total RNA was isolates from senescent IMR-90 cells using Nucleospin® RNA kit (Macherey-Nagel™). cDNA was synthesized with gene-specific reverse primers using M-MLV Reverse Transcriptase (Promega), according to the manufacturer's protocol. To generate template for in vitro transcription (IVT) reaction, the cDNA was PCR amplified using KAPA Taq EXtra HotStart® ReadyMix™ PCR Kit (R&D). PCR product was run on 1.5% agarose TAE gel, the correct band size was cut and DNA was cleaned using Wizard® SV Gel and PCR Clean-Up System kit (Promega). IVT was performed using HiScribe™ T7 High Yield RNA Synthesis Kit (NEB). Samples were then treated with DNase I (New England Biolabs) and incubated for 15 minutes at 37° C. IVT product was run on 1.5% agarose TBE gel, the correct band size was cut and RNA was cleaned using QIAquick® Gel Extraction Kit (Qiagen). See primer sequences in Table 1, below.
# RNA substrate was diluted with Molecular Biology Grade Water (Biological Industries) and used in in vitro cleavage assay. A 20 μl reaction system comprising RNA substrate (final concentration 500 nM), 2 μl 10× reaction buffer (50 mM Tris-HCl pH 7.4, 100 mM NaCl, 10 mM MgCl2) and 1 μl DNAzyme (10 μM) (as depicted in Table 2, below) was mixed. Reactions were incubated at 37° C. for 60 min. 2×RNA L.D. (Thermo Fisher) was added to each sample. Samples were heated at 70° C. for 30 sec, centrifuged and loaded onto 1.5% agarose TBE gels. Quantification was performed using Image Lab software (Bio Rad).
# [1] = system: senescent human IMR-90 fibroblast cells; format: cell-based
# Method: Human IMR-90, BJ, WI-38 fibroblasts and REC epithelial cells were obtained from ATCC and grown at 5% oxygen. IMR-90 and REC cells were maintained in DMEM medium comprising 100 units per ml of penicillin, […] of streptomycin and 10% fetal bovine serum. BJ and WI-38 cells were maintained in EMEM medium comprising 100 units per ml of penicillin, […] of streptomycin, 10% fetal bovine serum, 1% Pyruvate, 1% L-Glutamine, mLFs were isolated according to standard procedures [Seluanov, A., et al. J Vis Exp (2010) (44):2033] and grown at 5% oxygen. Cells were maintained in EMEM medium comprising 100 units per ml of penicillin, […] of streptomycin and 15% fetal bovine serum.
# DNA damage induced senescence (DIS) was induced by etoposide treatment (E1383, Sigma) at a concentration of […] for IMR-90, BJ, and WI-38, 16 μM for mLF and 12.5 μM for REC for a duration of 48 hours. Cells acquired the senescence phenotype 7 days post treatment (determined by SA-beta-gal staining).
# Oncogene Induced Senescence (OIS) was induced by means of retroviral infection with H-RasG12 (pLNCX2) at 5% oxygen. Retroviruses were packaged, and infections were performed as described below.
# Replicative Induced Senescence (RIS) was induced by long-term passaging of the cells in tissue culture. Cells acquired the senescence phenotype after 40 population doublings.
# Primary target cells (IMR-90, BJ, […]) were plated in 24-well plates at 100,000 cells per well. Cells were transfected with different concentrations of DNAzymes (as depicted in Table 2, below) using Lipofectamine™ 2000 (Invitrogen) according to manufacturer instructions. The percentage of survival was determined based on quantification of remaining adherent cells using PrestoBlue® reagent (A13262, Life Technologies Ltd.) relative to Lipofectamine™ only control and compared to Scramble DNAzyme (Dz_Scramble) [Scramble Arm (Scr A) sequence: ATCTTCCTFggctagctacaacgaCGCCTCTCC, SEQ ID NO: 5, or Scramble catalytic core (Scr B) sequence: AGGAGAACAacagtaactggcgacGGGATGAGG, SEQ ID NO: 86] treated cells, 3-6 days following transfection.
Substance,Validated cleavage (human p21 mRNA),Validated cytotoxicity [1]
"DNAzyme 846: SEQ ID NO: 33: GTGGGCGGAggctagctacaacgaTAGGGCTTC (DNA GTGGGCGGAGGCTAGCTACAACGATAGGGCTTC; DNA, backbone and methylation of C not given here)",validated for mediating cleavage of p21 mRNA,
"DNAzyme 1987: SEQ ID NO: 73: TGCAATGAAggctagctacaacgaTGGGGAGGG (DNA TGCAATGAAGGCTAGCTACAACGATGGGGAGGG; DNA, backbone and methylation of C not given here)",validated for mediating cleavage of p21 mRNA,
"DNAzyme 1013: SEQ ID NO: 38: TAATTCTAAggctagctacaacgaGCCAGAGGC (DNA TAATTCTAAGGCTAGCTACAACGAGCCAGAGGC; DNA, backbone and methylation of C not given here)",validated for mediating cleavage of p21 mRNA,
"DNAzyme 1455: SEQ ID NO: 45: AGGGGGGTAggctagctacaacgaCAAGAGCCA (DNA AGGGGGGTAGGCTAGCTACAACGACAAGAGCCA; DNA, backbone and methylation of C not given here)",validated for mediating cleavage of p21 mRNA,
"DNAzyme 1719: SEQ ID NO: 57: GGGGTGGGAggctagctacaacgaAGGCACCTC (DNA GGGGTGGGAGGCTAGCTACAACGAAGGCACCTC; DNA, backbone and methylation of C not given here)",validated for mediating cleavage of p21 mRNA,
"DNAzyme 1684: SEQ ID NO: 56: GAGAGGGTAggctagctacaacgaTGAAGGGAA (DNA GAGAGGGTAGGCTAGCTACAACGATGAAGGGAA; DNA, backbone and methylation of C not given here)",validated for mediating cleavage of p21 mRNA,
"DNAzyme 974: SEQ ID NO: 35: GGGTATGTAggctagctacaacgaATGAGGAGG (GGGTATGTAGGCTAGCTACAACGAATGAGGAGG; DNA, backbone and methylation of C not given here)",validated for mediating cleavage of p21 mRNA,
"DNAzyme 1742: SEQ ID NO: 59: TCCAGTCCAggctagctacaacgaTGAGCTGGG (DNA TCCAGTCCAGGCTAGCTACAACGATGAGCTGGG; DNA, backbone and methylation of C not given here)",validated for mediating cleavage of p21 mRNA,
"DNAzyme 1003: SEQ ID NO: 37: GCCAGAGGtccgagccggacgaGGGGGGCAG (DNA GCCAGAGGTCCGAGCCGGACGAGGGGGGCAG; DNA, backbone and methylation of C not given here)",validated for mediating cleavage of p21 mRNA,
"DNAzyme 1786: SEQ ID NO: 60: GAGGTAGAAggctagctacaacgaTAGGGTGCC (DNA GAGGTAGAAGGCTAGCTACAACGATAGGGTGCC; DNA, backbone and methylation of C not given here)",validated for mediating cleavage of p21 mRNA,
"DNAzyme 1967: SEQ ID NO: 70: TGGGGTGGAggctagctacaacgaGAGGAAGGT (DNA TGGGGTGGAGGCTAGCTACAACGAGAGGAAGGT; DNA, backbone and methylation of C not given here)",validated for mediating cleavage of p21 mRNA,
"DNAzyme 495: SEQ ID NO: 29: GAAGTTCCAggctagctacaacgaCGCTCACGG (DNA GAAGTTCCAGGCTAGCTACAACGACGCTCACGG; DNA, backbone and methylation of C not given here)",validated for mediating cleavage of p21 mRNA,
"DNAzyme 1851: SEQ ID NO: 64: GTGCCACCAggctagctacaacgaATGGGACCC (DNA GTGCCACCAGGCTAGCTACAACGAATGGGACCC; DNA, backbone and methylation of C not given here)",validated for mediating cleavage of p21 mRNA,
"DNAzyme 1524: SEQ ID NO: 48: GAGGGGCCAggctagctacaacgaGAGGGCAGG (DNA GAGGGGCCAGGCTAGCTACAACGAGAGGGCAGG; DNA, backbone and methylation of C not given here)",validated for mediating cleavage of p21 mRNA,
"DNAzyme 857: SEQ ID NO: 34: GCAGGCTTtccgagccggacgaTGTGGGCGG (GCAGGCTTTCCGAGCCGGACGATGTGGGCGG; DNA, backbone and methylation of C not given here)",validated for mediating cleavage of p21 mRNA,
"DNAzyme 1736: SEQ ID NO: 58: CCATTGAGtccgagccggacgaGGGGGTGGG (DNA CCATTGAGTCCGAGCCGGACGAGGGGGTGGG; DNA, backbone and methylation of C not given here)",validated for mediating cleavage of p21 mRNA,

Substance,Validated cleavage (human p21 mRNA),Validated cytotoxicity [1]
"DNAzyme 1252: SEQ ID NO: 42: GGGGGTGAAggctagctacaacgaTTCATAACC (DNA GGGGGTGAAGGCTAGCTACAACGATTCATAACC; DNA, backbone and methylation of C not given here)",validated for mediating cleavage of p21 mRNA,
"DNAzyme 1976: SEQ ID NO: 71: GGGGAGGGAggctagctacaacgaGGGGTGGAT (DNA GGGGAGGGAGGCTAGCTACAACGAGGGGTGGAT; DNA, backbone and methylation of C not given here)",validated for mediating cleavage of p21 mRNA,
"DNAzyme 2266: SEQ ID NO: 78: AGAGGTTTAggctagctacaacgaAGTCTAGGT (DNA AGAGGTTTAGGCTAGCTACAACGAAGTCTAGGT; DNA, backbone and methylation of C not given here)",validated for mediating cleavage of p21 mRNA,
317 (DNA TGGTTGCAGGGCTAGCTACAACGAAGCTTTGTT; chemistry not given here) [compound 317],,+
2266 (DNA AGAGGTTTAGGCTAGCTACAACGAAGTCTAGGT; chemistry not given here) [compound 2266],,+
1854 (DNA CCTGTGCCAGGCTAGCTACAACGACACATGGGA; chemistry not given here) [compound 1854],,+
1591 (DNA CAAAAGGTAGGCTAGCTACAACGAAGGGGAGCC; chemistry not given here) [compound 1591],,+
266 (DNA GTCTGTCTTCCGAGCCGGACGATGAATACTC; chemistry not given here) [compound 266],,+
1089 (DNA TAAATAGTAGGCTAGCTACAACGATTCATAAAA; chemistry not given here) [compound 1089],,+
1947 (DNA GCTGGACGAGGCTAGCTACAACGATTGAGGGGC; chemistry not given here) [compound 1947],,+
1967 (DNA TGGGGTGGAGGCTAGCTACAACGAGAGGAAGGT; chemistry not given here) [compound 1967],,+
1641 (DNA AGAGGGGAAGGCTAGCTACAACGATGCAGAGCC; chemistry not given here) [compound 1641],,+
225 (DNA CTGGGGAAAGGCTAGCTACAACGATGGGGCTCA; chemistry not given here) [compound 225],,+
290 (DNA AGGGGAGGAGGCTAGCTACAACGATTGACGAGT; chemistry not given here) [compound 290],,+
1719 (DNA GGGGTGGGAGGCTAGCTACAACGAAGGCACCTC; chemistry not given here) [compound 1719],,+
